For experiment [1], the system named is human Th1/Th17 cells. In words: In vitro assay using activated human T-cells differentiated into Th1/Th17 cells; cytokines released in the supernatant. Format: cell-based. The method, then: CD4+ T cells were first negatively isolated from human peripheral blood of healthy donors using RosetteSep® separation system from STEMCELL.
Subsequently, CD4+ T cells were activated by crosslinking the cell surface proteins CD3 and CD28 with specific antibodies.
To induce Th1/Th17 differentiation, activated CD4+ T cells were then cultured in flasks at density of 2-5×10^6 cells per ml of culture in X-VIVO 15 serum-free medium in presence of growth and differentiation factors cocktail, containing the following: • rhIL-2 at 10 ng/ml • rhTGF-β at 10 ng/ml • rhIL-1β at 10 ng/ml • rhIL-6 at 10 ng/ml • rhIL-23 at 20 ng/ml • Antibody anti-IL-4 at 1 μg/ml • Antibody anti-IL-13 at 1 μg/ml
Culture media had been refreshed every second day and T cells were cultured up to 5-7 days to allow a complete differentiation into Th1/Th17 cells.
Once the T cells are differentiated into Th1/Th17 cells, cells are rinsed from the differentiation media and placed in assay media (X-VIVO 15 media containing 10 ng/ml rhIL-2 only) at the final concentration of 1-1.5×10^6 cells/ml in wells with 0.250 ml cell suspension per well (0.25-0.375×10^6 cells/well/sample) with and without test compound treatment for 24 hours. At the termination time point, the effect of anti-inflammatory drugs is assessed by measuring the level of phenotype related cytokines released in the cell culture supernatants. Duplicates and cells from different donors are used for each treatment.
After differentiation for 5-6 days, all the cells were carefully washed and placed in growth media containing IL-2 (X-VIVO+10 ng/ml IL-2) at a final concentration of 1-1.5×10^6 cells/ml. […] Assays were performed in duplicates and included undifferentiated human T cells (negative control) and treated or untreated differentiated human Th1/Th17 cells. All cells were cultured under similar conditions in assay media containing 0.1% DMSO with or without test compounds.
Th1/Th17 cells were treated for 24 hours with or without test compounds.
Supernatants were collected from all samples and assessed for cytokine expression (IL-6, IL-8, IL-17, IL-22 and TNF-α). All cytokines were measured (as pg/ml) using MSD kits except IL-22 which was measured by ELISA.
Data analysis and graphs were made in Excel or GraphPad Prism. Statistical analysis was made using 1 way ANOVA corrected by Dunnett's Multiple Comparison Test.

Experiment [2] has as its system keratinocyte proliferation. The following applies: cited from earlier work.
[3] abbreviates: PDE4 inhibitor 1 μM alone or in combination with calcipotriol 100 nM.
Setting [4] is: test compound alone, 24 hours, ELISA.
[5] abbreviates: vitamin D analogue 100 nM in combination with Compound A 1 μM.

“Also recorded” adds a separate entry of the source.

`N#Cc1ccc(Oc2ccc3c(c2)COB3O)cc1` [AN2728, 4-(1-hydroxy-1,3-dihydro-2,1-benzoxaborol-5-yloxy)benzonitrile]: the “expression and secretion of IL-22” value in experiment [1] (setting [3]) was “comparable efficacy to Compound A”.

For `CCCNC(=O)COc1c(C(=O)Cc2ccnc(Cl)c2Cl)ccc(OC)c1OC` [Compound A, 2-{6-[2-(2,3-dichloropyridin-4-yl)acetyl]-2,3-dimethoxyphenoxy}-N-propylacetamide], the “expression of IL-22” value in experiment [1] (PDE4 inhibitor 1 μM alone, compared to vehicle treated control) was “increases”. Further, in experiment [1] (test compound alone, 24 hours), the “expression of IL-6” value is “weakly; also recorded: significantly inhibits”, the “expression of IL-8” value is “did not have any effect”, the “expression of IL-17” value was “to some degree” and the “expression of TNFα” value is “strongly decreased; also recorded: significantly inhibits”. In addition, in experiment [1] (setting [4]), the “expression of IL-22” value is on record as “dose-dependent upregulation; also recorded: increased; also recorded: significantly increases”.

On to `COc1cccc(Nc2c(C(N)=O)cnc3c(C)cc(S(=O)(=O)c4cccc(C(=O)N(C)C)c4)cc23)c1.Cl` [GSK256066, 6-[3-(N,N-dimethylcarbamoyl)phenylsulfonyl]-4-(3-methoxyphenylamino)-8-methylquinoline-3-carboxamide hydrochloride], for which the “expression and secretion of IL-22” value in experiment [1] (setting [3]) is on record as “comparable efficacy to Compound A”.

`O=C(Nc1c(Cl)cncc1Cl)c1ccc(OC(F)F)c(OCC2CC2)c1` [Roflumilast, 3-(cyclopropylmethoxy)-N-(3,5-dichloropyridin-4-yl)4-(difluoromethoxy)benzamide]: the “expression and secretion of IL-22” value in experiment [1] (setting [3]) is recorded as “comparable efficacy to Compound A”.

On to `CCOc1ccc(-c2nc(-c3cccc(C(=O)O)n3)cs2)cc1OCC` [Tetomilast, 6-[2-(3,4-diethoxyphenyl)thiazol-4-yl]pyridine-2-caboxylic acid], for which the “expression and secretion of IL-22” value in experiment [1] (setting [3]) is given as “comparable efficacy to Compound A”.

On to `C=C1/C(=C\C=C2/CCC[C@]3(C)[C@@H]([C@H](C)/C=C/[C@@H](O)C4CC4)CC[C@@H]23)C[C@@H](O)C[C@@H]1O` [calcipotriol, Calcipotriol], for which the “upregulation of IL-22 expression” value is recorded as “lost” in experiment [1] (calcipotriol 10 pM together with Compound A 1 μM); “inhibited the upregulation” in experiment [1] (calcipotriol 100 pM together with Compound A 1 μM); “inhibited the upregulation” in experiment [1] (calcipotriol 500 pM together with Compound A 1 μM); “inhibited the upregulation” in experiment [1] (calcipotriol 1 nM together with Compound A 1 μM); “inhibited the upregulation” in experiment [1] (calcipotriol 100 nM together with Compound A 1 μM). The “expression of IL-6” value in experiment [1] (test compound alone, 24 hours) is listed as “did not have any effect”. Moreover, the “expression of IL-8” value in experiment [1] (test compound alone, 24 hours) was “strongly inhibited”; in experiment [1] (test compound alone, 24 hours, listed as Calcipotriol), “inhibits”. In experiment [1] (test compound alone, 24 hours), the “expression of IL-17” value was “to some extent”. Besides, the “expression of TNFα” value in experiment [1] (test compound alone, 24 hours) is recorded as “did not have any effect”. The “expression of IL-22” value in experiment [1] (setting [4]) is “strongly inhibiting; also recorded: downregulate; also recorded: strongly inhibited”; in experiment [1] (test compound alone, 24 hours, ELISA, listed as Calcipotriol) it was “significantly inhibits”. For the same compound, the “expression and secretion of IL-22” value in experiment [1] (vitamin D analogue 100 nM alone, compared to vehicle treated control) is “significantly inhibits”; in experiment [1] (setting [5]), “comparable efficacy as Calcipotriol”. In addition, the “concentration required to affect keratinocyte proliferation” value in experiment [2] is recorded as 28 nM.

Take `C=C1/C(=C\C=C2/CCC[C@]3(C)[C@@H]([C@H](C)CCCC(C)(C)O)CC[C@@H]23)C[C@@H](O)C[C@@H]1O` [calcitriol]: the “expression of IL-22” value in experiment [1] (setting [4]) is recorded as “downregulate”. In experiment [1] (setting [5]), the “expression and secretion of IL-22” value is recorded as “comparable efficacy as Calcipotriol”.

With `C=C1/C(=C\C=C2/CCC[C@]3(C)[C@@H]([C@H](C)OCCC(C)(C)O)CC[C@@H]23)C[C@@H](O)C[C@@H]1O` [maxacalcitol], in experiment [1] (setting [4]), the “expression of IL-22” value is “downregulate”. Besides, in experiment [1] (setting [5]), the “expression and secretion of IL-22” value is “comparable efficacy as Calcipotriol”.

Turning to `C=C1/C(=C\C=C2/CCC[C@]3(C)[C@@H]([C@H](C)CC[C@@H](O)C(C)C)CC[C@@H]23)C[C@@H](O)C[C@@H]1O` [tacalcitol], the “expression of IL-22” value in experiment [1] (setting [4]) is on record as “downregulate”. Also, the “expression and secretion of IL-22” value in experiment [1] (setting [5]) was “comparable efficacy as Calcipotriol”.

These data come from patent US9855285B2, “Method of inhibiting the expression of IL-22 in activated T-cells” (LEO PHARMA A/S, priority 2012, dated 2018).
